The text below walks through data of patent publication US20130283403A1, “ZEBRAFISH SEIZURE MODEL, METHOD FOR ES[…] SAME, AND METHOD FOR SCREENING ANT[…] USING THE SAME” (NATIONAL CHENG KUNG UNIVERSITY, priority 2012, published 2013).

Data set [1] deals with ginkgotoxin-induced zebrafish seizure model. Description: Screening for drugs using the ginkgotoxin-induced zebrafish seizure model. The data set is classed as in vivo, zebrafish (Dania rerio, AB strain). Conditions: for rescuing effect: zebrafish at six hours post fertilization treated for 3 days, FIGS. 4A and 4B. How it is done:
(§1) A solution of the ginkgotoxin is stored below −20° C. The ginkgotoxin concentrate of 40 mM is added to a fish water to keep the concentrations between 0.2 mM and 1 mM while the zebrafish seizure model is induced. The zebrafish is incubated in the fish water without ginkgotoxin for the control group.
(§2) Pyridoxal-5′-phosphate and GABA stock solution of 40 mM are used when measuring the response of zebrafish embryos seizure model with respect to effects of ant-convulsant drugs. Anticonvulsant drugs, such as gabapentin, phenyloin, and primidone, are dissolved in DMSO to make 100 mM concentration. During experiments, anticonvulsant drugs and ginkgotoxin are added to the fish water simultaneously, or the anticonvulsant drugs are added to the fish water three hours before the zebrafish behaviors are recorded and analyzed. This will be described in detail in the following.
(§3) The swimming behavior of zebrafish were was observed directly by naked eyes to determine the test results, and a quantified standard is made by a swimming distance and velocity of the zebrafish. At least 10 zebrafish were used for each group.
(§4) Besides, the zebrafish embryos are placed in 200 μl fish water in a concave on microscope slide. Herein, the zebrafish embryos are observed and recorded under a high-resolution dissecting microscope (Panasonic Digital video camera, DMC-FX55GT). Further, each condition, such as the swimming distance and velocity, of zebrafish are analyzed and quantified by a locomotion tracking system (EthoVision XT8.0 locomotion tracking system® (Noldus Information Technology, Inc., Leesburg, Va., USA)). The zebrafish is incubated in the fish water without ginkgotoxin for the control group.
Herein, GABA, PLP, gabapentin and phenyloin are used to perform experiments. The zebrafish embryos are incubated in fish water without ginkgotoxin represented as a “control group”; the zebrafish embryos are treated with ginkgotoxin represented as “GT”; the zebrafish embryos are treated simultaneously with ginkgotoxin and PLP of 0.5 mM represented as “GT+PLP”; the zebrafish embryos are treated simultaneously with ginkgotoxin and GABA of 0.5 mM represented as “GT+GABA”; the zebrafish embryos are treated simultaneously with ginkgotoxin and gabapentin of 1 mM represented as “GT+gabapentin”; the zebrafish embryos are treated simultaneously with ginkgotoxin and phenyloin of 1 mM represented as “GT+phenyloin”. The results are shown in FIGS. 2A to 4B, wherein, FIG. 2A and FIG. 2B are results showing that zebrafish at 3 days post fertilization of the example are treated for 2 hours; FIG. 3A and FIG. 3B are results showing that zebrafish at 5 days post fertilization of the example are treated for 2 hours; FIG. 4A and FIG. 4B are results that zebrafish at 6 hours post fertilization of the example were treated for 3 days. These indicate aggrevated seizure and convulsion when the swimming distance is longer and swimming velocity is faster transitorily.
Here, a comparison between the zebrafish seizure model induced by PTZ and one induced by ginkgotoxin is drawn. Wherein, the zebrafish embryos incubated in fish water without ginkgotoxin represented as a “control group”; the zebrafish embryos only treated with ginkgotoxin represented as “GT”; the zebrafish embryos treated only with PTZ of 0.5 mM represented as “PTZ”; the zebrafish embryos treated simultaneously with ginkgotoxin and DMSO represented as “GT+DMSO”; the zebrafish embryos treated simultaneously with PTZ and DMSO represented as “PTZ+DMSO”; the zebrafish embryos treated simultaneously with ginkgotoxin and gabapentin of 2 mM represented as “GT+gabapentin”; the zebrafish embryos treated simultaneously with PTZ and phenyloin of 2 mM represented as “PTZ+phenyloin”; the zebrafish embryos treated simultaneously with GT and folic acid of 1 mM represented as […]; the zebrafish embryos treated simultaneously with PTZ and folic acid of 1 mM is indicated as “PTZ+folic acid”. […]

The test system of data set [2] is PTZ-induced zebrafish seizure model. Nature of the data set: Zebrafish seizure model induced by PTZ. The data set is classed as in vivo, zebrafish (Dania rerio, AB strain). Conditions: model induced by PTZ 0.5 mM, FIGS. 5A and 5B. The procedure: as §2, §3
Besides, the zebrafish embryos are placed in 200 μl fish water in a concave on microscope slide. Herein, the zebrafish embryos are observed and recorded under a high-resolution dissecting microscope (Panasonic Digital video camera, DMC-FX55GT). Further, each condition, such as the swimming distance and velocity, of zebrafish are analyzed and quantified by a locomotion tracking system (EthoVision XT8.0 locomotion tracking system® (Noldus Information Technology, Inc., Leesburg, Va., USA)). The zebrafish is incubated in the fish water without ginkgotoxin for the control group. […]

For data set [3] the test system is unchanged. Conditions: current experimental data; cited from earlier work.
The next data set has as its system zebrafish larvae. Description: Establishing the zebrafish seizure model with ginkgotoxin. Type of data set: in vivo, zebrafish (Dania rerio, AB strain). The procedure:
as §1, §3, §4
To induce seizures, the zebrafish larvae at 5 days post fertilization (5-dpf) are placed in fish water containing ginkgotoxin of various concentrations (0.2 mM to 1 mM) and ecorded and analyzed 2 hours later. […]

Setting [4] is: 1 mM added simultaneously with ginkgotoxin 0.5 mM, regardless of embryonic stage, FIGS. 2A to 4B.
[5] abbreviates: 0.5 mM added simultaneously with ginkgotoxin 0.5 mM, FIGS. 2A to 4B.

On to `O=C1NC(=O)C(c2ccccc2)(c2ccccc2)N1` [phenyloin], for which the “conditions of seizure and convulsion (swimming distance and velocity)” value (shortened to “conditions of seizure and convulsion”) in data set [1] (setting [4]) was “alleviated with greater extent”. Further, in data set [1] (1 mM with ginkgotoxin), the rescuing effect result was “most obvious signs of rescuing effect”.
For `Cc1ncc(COP(=O)(O)O)c(C=O)c1O` [PLP, Pyridoxal-5′-phosphate], the “conditions of seizure and convulsion” value in data set [1] (setting [5]) is “alleviated with a greater extent”. The rescuing effect entry in data set [1] (0.5 mM with ginkgotoxin) is recorded as “most obvious signs of rescuing effect”.
With `NCCCC(=O)O` [GABA, gamma-aminobutyric acid], the “conditions of seizure and convulsion” value in data set [1] (setting [5]) is recorded as “alleviated with a greater extent”. The rescuing effect result in data set [1] (0.5 mM with ginkgotoxin) was “most obvious signs of rescuing effect”.
For `CCC1(c2ccccc2)C(=O)NCNC1=O` [primidone], the “detection as antiepileptic or anti-convulsion drug (seizure stage 0/I/II)” value is “enable to screen out” in data set [1] (model induced by ginkgotoxin, FIGS. 5A and 5B); “could not be accomplished” in data set [2]. Besides, the “response of the PTZ-induced seizure model to the drug” value in data set [3] is “does not respond”.
As for `NCC1(CC(=O)O)CCCCC1` [gabapentin], the “conditions of seizure and convulsion” value in data set [1] (setting [4]) is “alleviated with greater extent”. The rescuing effect entry in data set [1] (1 mM with ginkgotoxin) is recorded as “most obvious signs of rescuing effect”.
With `COCc1c(CO)cnc(C)c1O` [ginkgotoxin, 4-O-methylpyridoxine], in data set [1] (0.5 mM, 3 dpf or 5 dpf treated 2 hours, 6 hpf treated 3 days, FIGS. 2A to 4B), the “state of zebrafish treated with ginkgotoxin (swimming distance and velocity)” value was “states of seizure or convulsion”. Besides, the “lower dose at which the zebrafish seizure model can be established” value in the data set on zebrafish larvae (5-dpf larvae, after incubating for 2 hours, FIG. 1B) amounted to 0.2 mM. Moreover, in the data set on zebrafish larvae (zebrafish larvae at 5 days post fertilization, in fish water, FIGS. 1A and 1B), the “concentration at which the zebrafish seizure model can be established steadily” value was found to be 500 µM.
